Measurements taken from ChEMBL document CHEMBL5154919, “New ZW4864 Derivatives as Small-Molecule Inhibitors for the β-Catenin/BCL9 Protein-Protein Interaction” (ACS Med Chem Lett, 2022).
pIC50, pKi: −log10 of the molar value.

Experiments:
[1] = target: T1, beta-catenin-B-cell lymphoma 9 protein complex (Homo sapiens, UniProt P35222); experiment: Inhibition of full length beta-catenin (1 to 781 residues) (unknown origin) expressed in Escherichia coli BL21 (DE3)-N-terminal biotinylated human BCL9 (350 to 375 residues) protein-protein interaction incubated for 1 hr by Alphascreen assay
T1 sequence (P35222 whole entry): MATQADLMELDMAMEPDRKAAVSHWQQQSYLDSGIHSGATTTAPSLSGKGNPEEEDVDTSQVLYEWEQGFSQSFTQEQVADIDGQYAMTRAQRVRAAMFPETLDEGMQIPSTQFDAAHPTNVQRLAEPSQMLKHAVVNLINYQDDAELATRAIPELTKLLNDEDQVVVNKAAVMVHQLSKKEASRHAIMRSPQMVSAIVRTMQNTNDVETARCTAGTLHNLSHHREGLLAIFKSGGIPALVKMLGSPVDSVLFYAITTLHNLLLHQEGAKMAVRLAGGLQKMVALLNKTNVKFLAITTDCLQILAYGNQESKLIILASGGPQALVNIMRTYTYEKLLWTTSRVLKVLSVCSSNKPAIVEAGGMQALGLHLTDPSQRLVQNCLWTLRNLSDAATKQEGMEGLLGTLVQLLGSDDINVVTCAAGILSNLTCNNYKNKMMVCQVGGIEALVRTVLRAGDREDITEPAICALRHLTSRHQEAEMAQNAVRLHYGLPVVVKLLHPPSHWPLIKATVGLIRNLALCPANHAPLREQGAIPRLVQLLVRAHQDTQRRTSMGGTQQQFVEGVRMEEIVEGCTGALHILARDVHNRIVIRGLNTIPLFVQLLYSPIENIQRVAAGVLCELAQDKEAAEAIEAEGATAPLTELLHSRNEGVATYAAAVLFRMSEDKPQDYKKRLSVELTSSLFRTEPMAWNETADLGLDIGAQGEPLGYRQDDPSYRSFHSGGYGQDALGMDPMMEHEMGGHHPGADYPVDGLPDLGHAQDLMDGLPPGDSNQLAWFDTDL
T1 sequence (O00512 whole entry): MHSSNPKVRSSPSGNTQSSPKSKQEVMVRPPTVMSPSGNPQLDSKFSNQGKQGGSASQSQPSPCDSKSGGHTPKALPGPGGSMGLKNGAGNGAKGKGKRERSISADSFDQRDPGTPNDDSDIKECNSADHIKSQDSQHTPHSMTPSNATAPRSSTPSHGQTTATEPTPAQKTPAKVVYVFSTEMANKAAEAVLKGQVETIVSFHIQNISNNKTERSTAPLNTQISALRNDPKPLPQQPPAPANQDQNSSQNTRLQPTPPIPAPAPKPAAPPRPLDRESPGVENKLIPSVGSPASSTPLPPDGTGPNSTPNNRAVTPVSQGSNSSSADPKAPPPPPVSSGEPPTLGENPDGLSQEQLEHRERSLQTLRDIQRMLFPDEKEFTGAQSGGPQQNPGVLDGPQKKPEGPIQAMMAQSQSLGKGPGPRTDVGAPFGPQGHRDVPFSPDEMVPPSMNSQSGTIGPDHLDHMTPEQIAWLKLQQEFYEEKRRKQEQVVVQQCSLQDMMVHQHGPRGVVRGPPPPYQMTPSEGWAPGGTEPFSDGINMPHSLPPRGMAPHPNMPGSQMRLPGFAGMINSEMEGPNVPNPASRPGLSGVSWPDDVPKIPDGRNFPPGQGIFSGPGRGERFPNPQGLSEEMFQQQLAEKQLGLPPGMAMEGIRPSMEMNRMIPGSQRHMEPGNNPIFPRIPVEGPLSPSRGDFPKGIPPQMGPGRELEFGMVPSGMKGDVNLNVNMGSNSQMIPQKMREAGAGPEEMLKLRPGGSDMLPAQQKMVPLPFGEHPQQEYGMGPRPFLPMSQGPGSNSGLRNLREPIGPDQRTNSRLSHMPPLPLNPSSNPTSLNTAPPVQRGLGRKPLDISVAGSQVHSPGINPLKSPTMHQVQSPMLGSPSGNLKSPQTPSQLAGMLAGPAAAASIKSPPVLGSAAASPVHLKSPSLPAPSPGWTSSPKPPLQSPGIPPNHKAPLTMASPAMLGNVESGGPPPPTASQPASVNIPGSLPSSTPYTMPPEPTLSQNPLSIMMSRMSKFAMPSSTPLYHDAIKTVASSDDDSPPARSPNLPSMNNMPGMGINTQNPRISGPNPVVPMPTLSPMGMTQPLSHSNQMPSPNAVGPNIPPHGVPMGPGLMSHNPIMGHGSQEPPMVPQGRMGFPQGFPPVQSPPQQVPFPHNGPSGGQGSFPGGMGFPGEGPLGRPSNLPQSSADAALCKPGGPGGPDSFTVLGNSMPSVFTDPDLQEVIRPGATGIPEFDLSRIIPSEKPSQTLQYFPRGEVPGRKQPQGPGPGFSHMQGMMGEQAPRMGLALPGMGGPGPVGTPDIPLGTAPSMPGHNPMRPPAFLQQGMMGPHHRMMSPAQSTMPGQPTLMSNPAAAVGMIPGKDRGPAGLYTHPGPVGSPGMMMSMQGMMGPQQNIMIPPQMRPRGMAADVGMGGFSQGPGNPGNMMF

[2] = Inhibition of Wnt/beta-catenin transactivation signalling in human SW480 cells by TOPFlash reporter gene assay; format: cell-based
[3] = test system: SW480; experiment: Antiproliferative activity against human SW480 cells assessed as inhibition of cell growth measured by MTS method; format: functional, cell-based
[4] = test system: HCT-116; experiment: Antiproliferative activity against human HCT-116 cells assessed as inhibition of cell growth measured by MTS method; format: functional, cell-based
[5] = test system: MDA-MB-231; experiment: Antiproliferative activity against human MDA-MB-231 cells assessed as inhibition of cell growth measured by MTS method; format: functional, cell-based
[6] = test system: MDA-MB-468; experiment: Antiproliferative activity against human MDA-MB-468 cells assessed as inhibition of cell growth measured by MTS method; format: functional, cell-based
[7] = test system: MCF-10A; experiment: Antiproliferative activity against human MCF-10A cells assessed as inhibition of cell growth measured by MTS method; format: functional, cell-based
[8] = target: T2, CYP1A2 (Homo sapiens, UniProt P05177); experiment: Inhibition of CYP1A2 in human liver microsomes using phenacetin at 10 uM in presence of NADPH incubated for 10 mins; format: ADME, Microsome; conditions: probe phenacetin
T2 sequence (P05177 whole entry): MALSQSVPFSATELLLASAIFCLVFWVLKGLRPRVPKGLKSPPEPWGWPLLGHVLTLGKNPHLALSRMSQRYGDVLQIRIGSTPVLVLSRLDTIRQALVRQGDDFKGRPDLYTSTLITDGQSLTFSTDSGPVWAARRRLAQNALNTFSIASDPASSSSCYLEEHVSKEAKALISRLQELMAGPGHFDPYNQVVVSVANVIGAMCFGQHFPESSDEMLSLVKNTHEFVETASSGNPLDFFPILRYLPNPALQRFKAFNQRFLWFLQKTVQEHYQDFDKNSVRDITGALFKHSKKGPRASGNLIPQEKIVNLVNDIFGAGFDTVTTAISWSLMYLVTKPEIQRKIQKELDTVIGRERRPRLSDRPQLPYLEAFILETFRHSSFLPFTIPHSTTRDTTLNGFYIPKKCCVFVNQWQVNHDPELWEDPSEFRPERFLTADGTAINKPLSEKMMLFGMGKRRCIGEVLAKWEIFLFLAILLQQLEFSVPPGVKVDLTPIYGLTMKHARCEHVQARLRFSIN

[9] = target: CYP2C9 (Homo sapiens, UniProt P11712); experiment: Inhibition of CYP2C9 in human liver microsomes using tolbutamide as substrate at 10 uM in presence of NADPH incubated for 10 mins; format: ADME, Microsome; conditions: probe tolbutamide
[10] = target: CYP2D6 (Homo sapiens, UniProt P10635); experiment: Inhibition of CYP2D6 in human liver microsomes using bufuralol as substrate at 10 uM in presence of NADPH incubated for 10 mins; format: ADME, Microsome; conditions: probe bufuralol
[11] = target: CYP3A4 (Homo sapiens, UniProt P08684); experiment: Inhibition of CYP3A4 in human liver microsomes using Midazolam as substrate at 10 uM in presence of NADPH incubated for 10 mins; format: ADME, Microsome; conditions: probe midazolam
CYP3A4, sequence (P08684 whole entry): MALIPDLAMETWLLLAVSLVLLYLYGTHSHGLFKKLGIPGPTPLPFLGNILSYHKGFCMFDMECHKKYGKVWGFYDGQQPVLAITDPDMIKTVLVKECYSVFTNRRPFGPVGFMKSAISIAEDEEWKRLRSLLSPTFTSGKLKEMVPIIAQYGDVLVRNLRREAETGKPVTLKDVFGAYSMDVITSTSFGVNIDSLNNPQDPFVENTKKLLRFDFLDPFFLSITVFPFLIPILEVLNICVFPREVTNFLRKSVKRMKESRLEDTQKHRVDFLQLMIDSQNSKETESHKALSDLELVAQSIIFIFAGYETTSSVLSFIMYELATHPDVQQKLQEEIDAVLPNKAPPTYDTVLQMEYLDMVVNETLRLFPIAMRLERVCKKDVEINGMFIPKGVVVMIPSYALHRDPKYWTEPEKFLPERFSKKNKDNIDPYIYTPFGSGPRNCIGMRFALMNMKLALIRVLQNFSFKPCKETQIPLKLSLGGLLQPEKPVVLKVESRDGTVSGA

CYP2D6, sequence (P10635 whole entry): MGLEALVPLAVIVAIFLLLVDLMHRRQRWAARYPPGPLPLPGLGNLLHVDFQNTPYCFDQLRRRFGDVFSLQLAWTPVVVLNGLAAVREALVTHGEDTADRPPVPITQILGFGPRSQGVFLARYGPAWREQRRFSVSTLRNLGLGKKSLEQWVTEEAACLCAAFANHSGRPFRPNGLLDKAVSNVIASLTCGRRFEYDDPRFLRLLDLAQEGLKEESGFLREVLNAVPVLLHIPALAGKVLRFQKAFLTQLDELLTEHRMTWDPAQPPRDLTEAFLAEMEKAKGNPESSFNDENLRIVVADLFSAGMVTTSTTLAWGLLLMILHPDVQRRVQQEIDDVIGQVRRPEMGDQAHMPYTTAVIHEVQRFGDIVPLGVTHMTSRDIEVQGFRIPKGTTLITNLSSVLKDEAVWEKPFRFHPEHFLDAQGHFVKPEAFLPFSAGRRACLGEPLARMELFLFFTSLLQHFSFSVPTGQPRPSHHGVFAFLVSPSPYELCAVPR
CYP2C9, sequence (P11712 whole entry): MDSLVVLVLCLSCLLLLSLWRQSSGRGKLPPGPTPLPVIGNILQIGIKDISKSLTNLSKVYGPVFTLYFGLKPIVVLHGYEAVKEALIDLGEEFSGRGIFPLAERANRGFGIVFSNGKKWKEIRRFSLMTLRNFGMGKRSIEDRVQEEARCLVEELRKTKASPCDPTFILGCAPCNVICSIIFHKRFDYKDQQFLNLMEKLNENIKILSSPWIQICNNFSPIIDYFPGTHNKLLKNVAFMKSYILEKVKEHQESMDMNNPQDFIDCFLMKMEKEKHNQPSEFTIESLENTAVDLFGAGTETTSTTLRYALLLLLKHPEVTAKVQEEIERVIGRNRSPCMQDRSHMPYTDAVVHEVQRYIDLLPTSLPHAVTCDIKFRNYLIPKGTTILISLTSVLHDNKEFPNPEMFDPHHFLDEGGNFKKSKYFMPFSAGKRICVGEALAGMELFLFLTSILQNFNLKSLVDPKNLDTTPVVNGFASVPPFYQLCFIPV

| SMILES | pIC50 [1] | pKi [1] | further results |
| --- | --- | --- | --- |
| CC(C)(Oc1cccc(N2CCC[C@@H](C(=O)N(Cc3ccc(-c4cn[nH]c4)cc3)C3CC3)C2)c1)C(=O)N1CCC2(CCNC2)C1 (some centres not stated) | 4.92 | 5.01 |  |
| CC(C)(Oc1cccc(N2CCC[C@@H](C(=O)N(Cc3ccc(-c4ccnc5[nH]ccc45)cc3)C3CC3)C2)c1)C(=O)N1CCNCC1 | 5.66 | 5.74 | pIC50 [2]: 4.82; pIC50 [3]: 5.00; pIC50 [4]: 5.11; pIC50 [5]: 5.19; pIC50 [6]: 5.26; pIC50 [7]: 4.54 |
| O=C([C@@H]1CCCN(c2cccc(OC3(C(=O)N4CCNCC4)CCCC3)c2)C1)N(Cc1ccc(-c2cn[nH]c2)cc1)C1CC1 | 4.37 | 4.41 |  |
| O=C([C@@H]1CCCN(c2cccc(OC3(C(=O)N4CCNCC4)CC3)c2)C1)N(Cc1ccc(-c2cn[nH]c2)cc1)C1CC1 | 4.54 | 4.62 |  |
| CC(C)(Oc1cccc(N2CCC[C@@H](C(=O)N(Cc3ccc(-c4cccc5[nH]ncc45)cc3)C3CC3)C2)c1)C(=O)N1CCNCC1 | 5.60 | 5.70 |  |
| O=C(C(Oc1cccc(N2CCC[C@@H](C(=O)N(Cc3ccc(-c4cn[nH]c4)cc3)C3CC3)C2)c1)c1ccccc1)N1CCNCC1 (some centres not stated) | 4.64 | 4.68 |  |
| CC(C)(Oc1cccc(N2CCC[C@@H](C(=O)N(Cc3ccc(-c4c[nH]c5ccccc45)cc3)C3CC3)C2)c1)C(=O)N1CCNCC1 | 5.85 | 5.92 |  |
| CC(C)(Oc1cccc(N2CCC[C@@H](C(=O)N(Cc3ccc(-c4cn[nH]c4)cc3)C3CC3)C2)c1)C(=O)N1C[C@H]2CNC[C@H]2C1 | 5.08 | 5.17 |  |
| CC(C)(Oc1cccc(N2CCC[C@@H](C(=O)N(Cc3ccc(-c4cn[nH]c4)cc3)C3CC3)C2)c1)C(=O)N1CCC2(CNC2)C1 | 4.70 | 4.80 |  |
| CC(C)(Oc1cccc(N2CCC[C@@H](C(=O)N(Cc3ccc(-c4cn[nH]c4)cc3)C3CC3)C2)c1)C(=O)N1CCNCC1 |  |  | inhibition at 10 min, 10 µM [8]: 17%; inhibition at 10 min, 10 µM [9]: 83%; inhibition at 10 min, 10 µM [10]: 73%; inhibition at 10 min, 10 µM [11]: 96% |
| CC(C)(Oc1cccc(N2CCC[C@@H](C(=O)N(Cc3ccc(-c4c[nH]c5ncccc45)cc3)C3CC3)C2)c1)C(=O)N1CCNCC1 | 6.02 | 6.07 | pIC50 [2]: 4.96; pIC50 [3]: 5.01; pIC50 [4]: 5.09; pIC50 [5]: 5.34; pIC50 [6]: 5.30; pIC50 [7]: 4.62 |

Continued, in another order:

| pIC50 [1] | pKi [1] | SMILES | further results |
| --- | --- | --- | --- |
| 4.09 | 4.14 | CC(C)(Oc1cccc(N2CCC[C@@H](C(=O)NCc3ccc(-c4cn[nH]c4)cc3)C2)c1)C(=O)N1CCNCC1 |  |
| 4.92 | 4.96 | CC(C)(Oc1cccc(N2CCC[C@@H](C(=O)N(Cc3ccc(-c4cn[nH]c4)cc3)C3CCC3)C2)c1)C(=O)N1CCNCC1 |  |
| 5.05 | 5.10 | CC(C)N(Cc1ccc(-c2cn[nH]c2)cc1)C(=O)[C@@H]1CCCN(c2cccc(OC(C)(C)C(=O)N3CCNCC3)c2)C1 |  |
| 5.12 | 5.17 | CC(C)(Oc1cccc(N2CCC[C@@H](C(=O)N(Cc3ccc(-c4cn[nH]c4)cc3)C3CCCC3)C2)c1)C(=O)N1CCNCC1 |  |
| 4.42 | 4.51 | CC(C)(Oc1cccc(N2CCC[C@@H](C(=O)N(Cc3ccc(-c4cn[nH]c4)cc3)C3CC3)C2)c1)C(=O)N1CC2(CCNCC2)C1 |  |
| 4.55 | 4.60 | CN(Cc1ccc(-c2cn[nH]c2)cc1)C(=O)[C@@H]1CCCN(c2cccc(OC(C)(C)C(=O)N3CCNCC3)c2)C1 |  |
| 4.36 | 4.43 | CC(C)(Oc1cccc(N2CCC[C@@H](C(=O)N(Cc3ccc(-c4cn[nH]c4)cc3)C3CC3)C2)c1)C(=O)N1CC2(CNC2)C1 |  |
| 4.74 | 4.82 | CC(C)(Oc1cccc(N2CCC[C@@H](C(=O)N(Cc3ccc(-c4cn[nH]c4)cc3)CC3CC3)C2)c1)C(=O)N1CCNCC1 |  |
